# Data: ChEMBL document CHEMBL1138777, “Frontal affinity chromatography with MS detection of EphB2 tyrosine kinase receptor. 1. Comparison with conventional ELISA” (J Med Chem, 2004)
# Experiment: Binding constant for EphB2 tyrosine kinase
row,SMILES,Kd [µM]
1,COc1cc2ncnc(Nc3cccc(O)c3)c2cc1OC,2.4
2,COc1cc2ncnc(Nc3cccc(Br)c3)c2cc1OC,8.1
3,CC(C)(C)n1nc(-c2ccc(Cl)cc2)c2c(N)ncnc21,36.5
4,CNc1cc2c(Nc3cccc(Br)c3)ncnc2cn1,21.9

# Results, then the compound that gave them:
row,Kd [µM],SMILES
1,19.5,CN(C)c1ccc(/C=C2\C(=O)Nc3ccccc32)cc1
2,58.4,COc1cc2ncnc(Nc3ccc(Oc4ccccc4)cc3)c2cc1OC

# Experiment: Inhibition of EphB2 receptor tyrosine kinase in ELISA assay
row,SMILES,IC50 [µM]
1,COc1cc2ncnc(Nc3cccc(O)c3)c2cc1OC,1.2
2,COc1cc2ncnc(Nc3cccc(Br)c3)c2cc1OC,10.2
3,CC(C)(C)n1nc(-c2ccc(Cl)cc2)c2c(N)ncnc21,52
4,CNc1cc2c(Nc3cccc(Br)c3)ncnc2cn1,34

# Continued, values first:
row,IC50 [µM],SMILES
1,27.5,CN(C)c1ccc(/C=C2\C(=O)Nc3ccccc32)cc1
2,86,COc1cc2ncnc(Nc3ccc(Oc4ccccc4)cc3)c2cc1OC
